Tested on: CCL-1 and HGF cells
Experiment: Western blot for autophagy proteins Atg5, Atg7, LC3A/B
Format: cell-based
Settings: 24 h; erufosine 30 µM, HirDM90 IC50
Procedure: For Western blot, CCL-1 and HGF cell lines were chosen, and they were seeded in either 6-well plates or 55 mm Petri dishes suitable for cell culture. They were treated with an exposure time of 24 h in an incubator (Panasonic MCO-18AC, Panasonic Healthcare Ltd., […], Japan). […] Hans-Jörg Eibl. In addition, a higher concentration of an […] added to one of the tests for comparison. The samples were trypsinized, collected, washed with PBS (TS1101, HiMedia, Mumbai, India), centrifuged, and frozen at -80 °C if storage was necessary. Then they were lysed on ice with a buffer containing 100 mM Tris-HCl (648313, Sigma-Aldrich, St. Louis, MO, USA) at pH 8.0, 4% sodium dodecyl sulfate (SDS, […], Sigma-Aldrich), 20% glycerol (49779, Sigma-Aldrich), 1% Na3VO4 (450243, Sigma-Aldrich), 200 mM dithiothreitol (DTT, 3483-12-3, Sigma-Aldrich, Burlington, MA, USA) supplemented with protease inhibitor (05892970001, Roche). The cell lysate was heated to boiling for 15 min, then centrifuged at 13,000 rpm for 10 min at 4 °C. Lysates were subjected to denaturing SDS polyacrylamide gel electrophoresis on acrylamide 4-20% gradient Mini-PROTEAN® TGXTM Stain-Free gels (4568094, Bio-Rad Laboratories, Hercules, CA, USA). […] Densitometric calculation and analysis was performed with Quantity One software version 4.6.9 (Bio-Rad Laboratories).

In the case of `CCCCCCCC/C=C\CCCCCCCCCCCCOP(=O)([O-])OCC[N+](C)(C)C` [erufosine], the “Conversion of LC3A/B to the lower migrating form” value is reported as “converted to the lower migrating form visibly”.

From article PMC12566971, “Polyprenylated Acylphloroglucinols from Hypericum rochelii and Hypericum olympicum—Cytotoxic Effects on Non-Tumorigenic Cell Lines and Antibacterial Potential” (Pharmaceuticals, 2025)
